Target: T1, horseradish peroxidase (HRP) (Armoracia rusticana, UniProt P00433)
T1 construct: gene PRXC1A; commercial native enzyme from horseradish, Alfa Aesar; free in solution, together with GOx
T1 sequence (P00433 31-338): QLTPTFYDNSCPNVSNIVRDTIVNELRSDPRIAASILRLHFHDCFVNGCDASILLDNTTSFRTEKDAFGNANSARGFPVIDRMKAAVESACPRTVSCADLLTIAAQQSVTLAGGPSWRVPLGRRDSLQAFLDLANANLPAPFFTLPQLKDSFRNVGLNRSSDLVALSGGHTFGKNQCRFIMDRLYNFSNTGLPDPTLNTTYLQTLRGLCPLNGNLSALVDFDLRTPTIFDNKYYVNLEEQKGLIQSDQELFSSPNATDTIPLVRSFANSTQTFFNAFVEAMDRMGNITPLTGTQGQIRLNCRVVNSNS
Experiment: GOx/HRP cascade, TMB oxidation by H2O2 formed by GOx, absorbance at […] nm
Type: biochemical
Settings: H2O2 from GOx and glucose, 0.2 M acetate buffer pH 4, 20-23 °C; free enzymes

With `Cc1cc(-c2cc(C)c(N)c(C)c2)cc(C)c1N` [TMB, 3,3′,5,5′-tetramethylbenzidine] the “GOx/HRP cascade, TMB oxidation by H2O2 formed by GOx, absorbance at 652 nm” value was “the HRP used this H2O2 to oxidize a chromophore compound (TMB)”.

Reference: publication PMC9864776, “Synthesis of Novel Polymer-Assisted Organic-Inorganic Hybrid Nanoflowers and Their Application in Cascade Biocatalysis” (Molecules, 2023)
